Assays:
[1] = system: rabbit serum obtained by immunizing a rabbit with the SARS-CoV strain Frankfurt 1; assay type: binding; design: Binding of a rabbit serum to linear peptides / Binding of a rabbit serum to looped peptides / Rabbit serum linear peptides / Rabbit serum looped peptides / Binding of a rabbit serum to linear peptides of protein N of SARS-CoV Urbani (Rabbit serum linear peptides) / Binding of a rabbit serum to looped/cyclic peptides of protein N of SARS-CoV Urbani (Rabbit serum looped peptides): unit not given here
[2] = system: control sera (pooled serum of ten healthy LUMC hospital workers; commercial negative donor pooled serum from the Dutch bloodbank); assay type: binding, human; design: Binding of Control serum LUMC to linear peptides / Binding of Control serum Blood-bank to linear peptides / Binding of Control serum LUMC to looped peptides / Binding of Control Serum Blood-Bank to Looped peptides / Binding of Control serum LUMC to linear peptides of the protein M of SARS-CoV Urbani / Binding of Control serum Blood-bank to linear peptides of the protein M of SARS-CoV Urbani / Binding of Control serum LUMC to looped peptides of the protein M of SARS-CoV Urbani / Binding of Control Serum Blood-Bank to Looped peptides of the protein M of SARS-CoV Urbani: unit not given here
[3] = system: antibodies in sera from SARS patients (sera 1a, 1b, 2, 6, 37, 62, London, SARS-yellow, SARS-green); assay type: binding, human; design: Binding of serum 6 to linear peptides of protein X1 of SARS-CoV Urbani / Binding of serum 37 to linear peptides of protein X1 of SARS-CoV Urbani / Binding of serum 6 to looped/cyclic peptide (PEPSCAN-ELISA) / Binding of serum 37 to looped/cyclic peptide (PEPSCAN-ELISA) / Binding of serum 37 to looped/cyclic peptides of protein X1 of SARS-CoV Urbani / Binding of serum 6 to linear peptides of protein X2 / Binding of serum 37 to linear peptides of protein X2 / Binding of serum 37 to looped/cyclic peptides of protein X2 of SARS-CoV Urbani / Binding of serum 6 to linear peptides of protein M of SARS-CoV Urbani / Binding of serum 37 to linear peptides of protein M of SARS-CoV Urbani / Binding of serum 6 to looped/cyclic peptides of protein M of SARS-CoV Urbani / Binding of serum 37 to looped/cyclic peptides of protein M of SARS-CoV Urbani / Binding of serum 6 to linear peptides of protein X3 of SARS-CoV Urbani / Binding of serum 37 to linear peptides of protein X3 of SARS-CoV Urbani / Binding of serum 37 to looped/cyclic peptides of protein X3 of SARS-CoV Urbani / Binding of serum 6 to linear peptides of protein X4 of SARS-CoV Urbani / Binding of serum 37 to linear peptides of protein X4 of SARS-CoV Urbani / Binding of serum 37 to looped/cyclic peptides of protein X4 of SARS-CoV Urbani / Binding of serum 6 to linear peptides of protein X5 of SARS-CoV Urbani / Binding of serum 37 to linear peptides of protein X5 of SARS-CoV Urbani / Binding of serum 37 to looped/cyclic peptides of protein X5 of SARS-CoV Urbani / Binding of serum 6 to linear peptides of protein N of SARS-CoV Urbani / Binding of serum 37 to linear peptides of protein N of SARS-CoV Urbani / Binding of serum 6 to linear peptide (PEPSCAN-ELISA) / Binding of serum 1a to looped/cyclic peptides of protein N of SARS-CoV Urbani / Binding of serum 1b to looped/cyclic peptides of protein N of SARS-CoV Urbani / Binding of serum 2 to looped/cyclic peptides of protein N of SARS-CoV Urbani / Binding of serum 6 to looped/cyclic peptides of protein N of SARS-CoV Urbani / Binding of serum 37 to looped/cyclic peptides of protein N of SARS-CoV Urbani / Binding of serum 62 to looped/cyclic peptides of protein N of SARS-CoV Urbani / Binding of serum London to looped/cyclic peptides of protein N of SARS-CoV Urbani / Binding of serum SARS-green to looped/cyclic peptides of protein N of SARS-CoV Urbani: unit not given here

## SPKLFIRQEEVQQEL
[1]
  Rabbit serum linear peptides: 0.5
  Rabbit serum looped peptides: 0.0
[2]
  Binding of Control Serum Blood-Bank to Looped peptides: 0.6
  Binding of Control serum Blood-bank to linear peptides: 0.5
  Binding of Control serum LUMC to linear peptides: 0.5
  Binding of Control serum LUMC to looped peptides: 0.8
[3]
  Binding of serum 1a to linear peptides of protein X4 of SARS-CoV Urbani: 0.7
  Binding of serum 1a to looped/cyclic peptides of protein X4 of SARS-CoV Urbani: 0.8
  Binding of serum 1b to linear peptides of protein X4 of SARS-CoV Urbani: 0.5
  Binding of serum 1b to looped/cyclic peptides of protein X4 of SARS-CoV Urbani: 0.6
  Binding of serum 2 to linear peptides of protein X4 of SARS-CoV Urbani: 0.3
  Binding of serum 2 to looped/cyclic peptides of protein X4 of SARS-CoV Urbani: 0.7
  Binding of serum 6 to linear peptides of protein X4 of SARS-CoV Urbani: 0.4
  Binding of serum 6 to looped/cyclic peptides of protein X4 of SARS-CoV Urbani: 0.6
  Binding of serum 37 to linear peptides of protein X4 of SARS-CoV Urbani: 0.7
  Binding of serum 37 to looped/cyclic peptides of protein X4 of SARS-CoV Urbani: 0.8
  Binding of serum 62 to linear peptides of protein X4 of SARS-CoV Urbani: 0.7
  Binding of serum 62 to looped/cyclic peptides of protein X4 of SARS-CoV Urbani: 0.6
  Binding of serum London to linear peptides of protein X4 of SARS-CoV Urbani: 0.7
  Binding of serum London to looped/cyclic peptides of protein X4 of SARS-CoV Urbani: 0.4
  Binding of serum SARS-green to linear peptides of protein X4 of SARS-CoV Urbani: 0.8
  Binding of serum SARS-green to looped/cyclic peptides of protein X4 of SARS-CoV Urbani: 0.2
  Binding of serum SARS-yellow to linear peptides of protein X4 of SARS-CoV Urbani: 0.5
  Binding of serum SARS-yellow to looped/cyclic peptides of protein X4 of SARS-CoV Urbani: 0.5

## SQIQLSLLKVTAFQH
[1]
  Binding of a rabbit serum to linear peptides: 0.7
  Binding of a rabbit serum to looped peptides: 0.5
[2]
  Binding of Control Serum Blood-Bank to Looped peptides: 0.6
  Binding of Control serum Blood-bank to linear peptides: 0.5
  Binding of Control serum LUMC to linear peptides: 0.7
  Binding of Control serum LUMC to looped peptides: 0.6
[3]
  Binding of serum 1a to linear peptides of protein X2: 0.6
  Binding of serum 1a to looped/cyclic peptides of protein X2 of SARS-CoV Urbani: 0.5
  Binding of serum 1b to linear peptides of protein X2: 0.5
  Binding of serum 1b to looped/cyclic peptides of protein X2 of SARS-CoV Urbani: 0.5
  Binding of serum 2 to linear peptides of protein X2: 0.4
  Binding of serum 2 to looped/cyclic peptides of protein X2 of SARS-CoV Urbani: 0.4
  Binding of serum 6 to linear peptides of protein X2: 0.5
  Binding of serum 6 to looped/cyclic peptides of protein X2 of SARS-CoV Urbani: 0.6
  Binding of serum 37 to linear peptides of protein X2: 0.5
  Binding of serum 37 to looped/cyclic peptides of protein X2 of SARS-CoV Urbani: 0.4
  Binding of serum 62 to linear peptides of protein X2: 0.4
  Binding of serum 62 to looped/cyclic peptides of protein X2 of SARS-CoV Urbani: 0.6
  Binding of serum London to linear peptides of protein X2: 0.3
  Binding of serum London to looped/cyclic peptides of protein X2 of SARS-CoV Urbani: 1.0
  Binding of serum SARS-green to linear peptides of protein X2: 0.2
  Binding of serum SARS-green to looped/cyclic peptides of protein X2 of SARS-CoV Urbani: 0.2
  Binding of serum SARS-yellow to linear peptides of protein X2: 0.3
  Binding of serum SARS-yellow to looped/cyclic peptides of protein X2 of SARS-CoV Urbani: 0.7

## SRTLSYYKLGASQRV
[1]
  Rabbit serum linear peptides: 0.6
  Rabbit serum looped peptides: 0.6
[2]
  Binding of Control Serum Blood-Bank to Looped peptides of the protein M of SARS-CoV Urbani: 0.6
  Binding of Control serum Blood-bank to linear peptides of the protein M of SARS-CoV Urbani: 0.9
  Binding of Control serum LUMC to linear peptides of the protein M of SARS-CoV Urbani: 0.5
  Binding of Control serum LUMC to looped peptides of the protein M of SARS-CoV Urbani: 0.8
[3]
  Binding of serum 1a to linear peptides of protein M of SARS-CoV Urbani: 0.8
  Binding of serum 1a to looped/cyclic peptides of protein M of SARS-CoV Urbani: 0.9
  Binding of serum 1b to linear peptides of protein M of SARS-CoV Urbani: 0.5
  Binding of serum 1b to looped/cyclic peptides of protein M of SARS-CoV Urbani: 0.3
  Binding of serum 2 to linear peptides of protein M of SARS-CoV Urbani: 0.8
  Binding of serum 2 to looped/cyclic peptides of protein M of SARS-CoV Urbani: 0.7
  Binding of serum 6 to linear peptides of protein M of SARS-CoV Urbani: 0.4
  Binding of serum 6 to looped/cyclic peptides of protein M of SARS-CoV Urbani: 0.9
  Binding of serum 37 to linear peptides of protein M of SARS-CoV Urbani: 0.8
  Binding of serum 37 to looped/cyclic peptides of protein M of SARS-CoV Urbani: 0.8
  Binding of serum 62 to linear peptides of protein M of SARS-CoV Urbani: 0.8
  Binding of serum 62 to looped/cyclic peptides of protein M of SARS-CoV Urbani: 0.7
  Binding of serum London to linear peptides of protein M of SARS-CoV Urbani: 0.3
  Binding of serum London to looped/cyclic peptides of protein M of SARS-CoV Urbani: 0.3
  Binding of serum SARS-green to linear peptides of protein M of SARS-CoV Urbani: 0.2
  Binding of serum SARS-green to looped/cyclic peptides of protein M of SARS-CoV Urbani: 0.4
  Binding of serum SARS-yellow to linear peptides of protein M of SARS-CoV Urbani: 0.1
  Binding of serum SARS-yellow to looped/cyclic peptides of protein M of SARS-CoV Urbani: 0.8

## SSLTSLLKTHRMCKY
[1]
  Binding of a rabbit serum to linear peptides: 0.3
  Binding of a rabbit serum to looped peptides: 0.5
[2]
  Binding of Control Serum Blood-Bank to Looped peptides: 0.7
  Binding of Control serum Blood-bank to linear peptides: 0.8
  Binding of Control serum LUMC to linear peptides: 0.4
  Binding of Control serum LUMC to looped peptides: 0.6
[3]
  Binding of serum 1a to linear peptides of protein X2: 0.6
  Binding of serum 1a to looped/cyclic peptides of protein X2 of SARS-CoV Urbani: 0.5
  Binding of serum 1b to linear peptides of protein X2: 0.5
  Binding of serum 1b to looped/cyclic peptides of protein X2 of SARS-CoV Urbani: 0.5
  Binding of serum 2 to linear peptides of protein X2: 0.4
  Binding of serum 2 to looped/cyclic peptides of protein X2 of SARS-CoV Urbani: 0.4
  Binding of serum 6 to linear peptides of protein X2: 0.5
  Binding of serum 6 to looped/cyclic peptides of protein X2 of SARS-CoV Urbani: 0.3
  Binding of serum 37 to linear peptides of protein X2: 0.5
  Binding of serum 37 to looped/cyclic peptides of protein X2 of SARS-CoV Urbani: 0.3
  Binding of serum 62 to linear peptides of protein X2: 0.6
  Binding of serum 62 to looped/cyclic peptides of protein X2 of SARS-CoV Urbani: 0.6
  Binding of serum London to linear peptides of protein X2: 0.4
  Binding of serum London to looped/cyclic peptides of protein X2 of SARS-CoV Urbani: 0.2
  Binding of serum SARS-green to linear peptides of protein X2: 0.5
  Binding of serum SARS-green to looped/cyclic peptides of protein X2 of SARS-CoV Urbani: 0.2
  Binding of serum SARS-yellow to linear peptides of protein X2: 0.3
  Binding of serum SARS-yellow to looped/cyclic peptides of protein X2 of SARS-CoV Urbani: 0.6
